In patent publication US20210147801A1, “METHODS FOR INCREASING EXPANSION AND IMMUNOSUPPRESSIVE CAPACITY OF A POPULATION OF CD8+CD45RCLOW/- TREGS” (INSERM (INSTITUT NATIONAL DE LA SANTÉ ET DE LA RECHERCHE …, priority 2017, published 2021):

Key:
Type in all cases: cell-based, human
CD8+CD45RClow/- Tregs [1] = assay: Expansion of CD8+CD45RClow/- Tregs with anti-CD3/anti-CD28 in medium supplemented with immunosuppressive drugs (14 days); conditions: rapamycin 45 ng/ml, methylprednisolone 500 pg/ml, mycophenolate mofetil 1 μg/ml; for expansion yield: Example 3, FIG. 3, cyclosporine A 45 ng/ml, tacrolimus 2 ng/ml, vs no IS drug
Procedure: CD8^+CD45RC^low/− Tregs from fresh or thawed PBMCs were seeded at 3×10^5/ml in RPMI1640 medium supplemented with 10% AB serum, Penicillin (100 U/ml), Streptomycin (0.1 mg/ml), Sodium pyruvate (1 mM), Glutamine (2 mM), Hepes Buffer (1 mM), non-essential amino acids (1×), IL-2 (1000 U/ml) and IL-15 (10 ng/ml), and were stimulated with coated anti-CD3 mAb (1 μg/ml), soluble anti-CD28 mAb (1 μg/ml) and/or allogeneic APCs at 1:4 Tregs: APCs ratio. At day 7, expanded cells were diluted at 1.5×10^5/ml and stimulated again with coated anti-CD3 and soluble anti-CD28 mAbs (1 μg/ml each). […] At day 14, expanded Tregs were washed with PBS before use. Suppressive activity was tested on CD8^+CD45RC^low/− Tregs expanded more than 10 fold in 7 days. For long-term expansion, CD8^+CD45RC^low/− Tregs and CD4^+CD25^highCD127^low/− Tregs were stimulated again with coated anti-CD3 (1 μg/ml) and soluble anti-CD28 MAbs (1 μg/ml) at days 14 and 21 and IL-2 and IL-15 cytokines were freshly added every 2 days from day 7 to 28. Culture medium 1× cytokines (IL-2 (1000 U/ml) and IL-15 (10 ng/ml)) was added when required.

CD8+CD45RClow/- Tregs [2] = assay: Suppressive activity of drug-expanded Tregs on CD4+CD25- effector T cells stimulated with allogeneic APCs (CFSE); conditions: for suppressive activity of Tregs: Example 3, FIG. 3, Tregs harvested at day 14, 1:1:1 Tregs:Teff:APCs, same drug concentrations, vs no IS drug
Procedure: CD8^+CD45RC^low/− Tregs from fresh or thawed PBMCs were seeded at 3×10^5/ml in RPMI1640 medium supplemented with 10% AB serum, Penicillin (100 U/ml), Streptomycin (0.1 mg/ml), Sodium pyruvate (1 mM), Glutamine (2 mM), Hepes Buffer (1 mM), non-essential amino acids (1×), IL-2 (1000 U/ml) and IL-15 (10 ng/ml), and were stimulated with coated anti-CD3 mAb (1 μg/ml), soluble anti-CD28 mAb (1 μg/ml) and/or allogeneic APCs at 1:4 Tregs: APCs ratio. At day 7, expanded cells were diluted at 1.5×10^5/ml and stimulated again with coated anti-CD3 and soluble anti-CD28 mAbs (1 μg/ml each). […] At day 14, expanded Tregs were washed with PBS before use. Suppressive activity was tested on CD8^+CD45RC^low/− Tregs expanded more than 10 fold in […]. For long-term expansion, CD8^+CD45RC^low/− Tregs and CD4^+CD25^highCD127^low/− Tregs were stimulated again with coated anti-CD3 (1 μg/ml) and soluble anti-CD28 MAbs (1 μg/ml) at days 14 and 21 and IL-2 and IL-15 cytokines were freshly added every 2 days from day 7 to 28. Culture medium 1× cytokines (IL-2 (1000 U/ml) and IL-15 (10 ng/ml)) was added when required.
We tested the effect of immunosuppressive drugs (at concentrations used in the clinic) on CD8^+CD45RC^low/− Tregs survival 7 days following the 14 days expansion (FIG. 1) or on the expansion yield and suppressive function score of CD8^+CD45RC^low/− Tregs during the 14 days expansion (FIG. 3D).
Methods: Fresh blood was taken from 1 healthy volunteer, PBMCs were isolated by Ficoll centrifugation, washed in PBS, adjusted at 2×10^8 PBMC/ml in PBS-FCS-EDTA and were incubated with anti-CD3-PeCy7, anti CD4-PerCPCy5.5 and anti-CD45RC FITC 30′ 4° C. Cells were washed with PBS-FCS-EDTA, filtered on 60 μm tissue, labeled with Dapi and FACS Aria sorted on lymphocyte morphology, exclusion of doublet cells, and DAPI-CD3^+CD4^−CD45RC^low/− expression. […] At days 10 and 12, cytokines were freshly added. Expanded Tregs were harvested at day 14 for suppressive activity assessment. […] After 5 days culture, Teff proliferation was analyzed by CFSE analysis in DAPI^−CD4±CD3^+ T cells.

CD8+CD45RClow/- Tregs [3] = assay: Tregs associated markers expression at day 21 after 7 d culture in IS-supplemented medium; conditions: Example 4, FIG. 4, tacrolimus 2 ng/ml, compared to drug free medium
Procedure: Methods: Fresh blood was taken from 1 healthy volunteer, PBMCs were isolated by Ficoll centrifugation, washed in PBS, adjusted at 2×10^8 PBMC/ml in PBS-FCS-EDTA and were incubated with anti-CD3-PeCy7, anti CD4-PerCPCy5.5 and anti-CD45RC FITC 30′ 4° C. Cells were washed with PBS-FCS-EDTA, filtered on 60 μm tissue, labeled with Dapi and FACS Aria sorted on lymphocyte morphology, exclusion of doublet cells, and DAPI-CD3^+CD4^−CD45RC^low/− expression. […] At days 7, Tregs were harvested, counted, washed, and plated at 5×10^5Tregs/well/3 ml in p6 plate previously coated with anti-CD3 (OKT3 clone, 1 μg/ml in PBS, 1 ml/well, 1 h at 37° C. then washed with PBS 3 times), in RPMI1640 medium supplemented with 10% AB serum, Penicillin (100 U/ml), Streptomycin (0.1 mg/ml), Sodium pyruvate (1 mM), Glutamine (2 mM), Hepes Buffer (1 mM), non-essential amino acids (1×), IL-2 (1000 U/ml) and IL-15 (10 ng/ml), anti-CD28 mAbs (clone CD28.2, soluble, 1 μg/ml). […] Tregs were analyzed at day 21 for survival/expansion yield and phenotype.

| Compound | expansion fold (CD8+CD45RClow/- Tregs [1]; Example 1, FIG. 3D, drugs added alone during 14 days or subsequently (day 0-7, then day 7-14), vs no immunosuppressor (NT)) | expansion yield (CD8+CD45RClow/- Tregs [1]) | suppression capacity (CD8+CD45RClow/- Tregs [2]; Example 1, FIG. 3D, Tregs expanded 14 days with drugs alone or subsequently, vs no immunosuppressor (NT)) | suppressive activity of Tregs (CD8+CD45RClow/- Tregs [2]) | IFNg expression by Tregs (CD8+CD45RClow/- Tregs [3]) |
| --- | --- | --- | --- | --- | --- |
| COc1c(C)c2c(c(O)c1C/C=C(\C)CCC(=O)OCCN1CCOCC1)C(=O)OC2 [mycophenolate mofetil] | inhibited the expansion by rapamycin | deleterious | decreased suppression | deleterious |  |
| C=CC[C@@H]1/C=C(\C)C[C@H](C)C[C@H](OC)[C@H]2O[C@@](O)(C(=O)C(=O)N3CCCC[C@H]3C(=O)O[C@H](/C(C)=C/[C@@H]3CC[C@@H](O)[C@H](OC)C3)[C@H](C)[C@@H](O)CC1=O)[C@H](C)C[C@@H]2OC [Tacrolimus, tacrolimus] |  | improved |  | improved | significantly decreased |
